Where “and” joins values, the source holds several entries; their conditions need not be identical. Equal entries are not always repeated.
Assays:
[1] = Lobeline conversion to epimer in the buffer system used at 37° C. in the VMAT2 uptake study (HPLC); assay type: physicochemical; conditions: VMAT2 uptake buffer, 37° C.
[2] = Lobeline conversion to epimer in deionized water (HPLC); assay type: physicochemical
Experimental: Extensive in vitro studies on the epimerization of lobeline were conducted in a variety of aqueous media. […] The concentration of the lobeline solution (500 mL) was ca. 0.5 mg/mL, and 1.5 mL aliquot parts were removed in triplicate at each time point and analyzed by HPLC. Corresponding pH measurements were performed with a Coming Model 240 pH meter.

clinical = conditions: human, in vivo
Experimental: Three consecutive doses of lobeline (either 30, 45 and 45 mg in the first study group, or 60, 60 and 60 mg in the second group) were administered to human volunteers at 0800, 1200 and 1600 over two full inpatient days. The pharmacokinetics of lobeline and epimer were then assessed in each subject. […] A crude index of accumulation (non-steady state) was obtained by dividing the sixth dose trough concentration by that observed for the fifth dose.

[3] = Pharmacokinetics of lobeline and epimer in human subjects after sublingual lobeline administration (7.5, 15, 30 mg); conditions: for AUCext (percent of AUC(0-∞) determined by extrapolation) / Tlast (time of last measurable plasma concentration) / λz (terminal exponential rate constant): lobeline in plasma; for AUCext (percent of AUC(0-∞) determined by extrapolation) / Tlast (time of last measurable plasma concentration) / λz (terminal exponential rate constant) / CL/F (extravascular clearance): individual human subjects; for CL/F (extravascular clearance): lobeline
Excerpt: The pharmacokinetics of lobeline and lobeline epimer were examined in eight human subjects (Sub) after sublingual lobeline administration.

[4] = Lobeline conversion to epimer in the HEPES buffer system used at 25° C. in the [^3H]DTBZ binding study (HPLC); assay type: physicochemical; conditions: for Lobeline %: [^3H]DTBZ binding buffer, 25° C.
Experimental: The initial dissolution of lobeline in water was followed by a 1:1 dilution of this stock solution in the appropriate HEPES buffer system, incubation at the prescribed temperature, and HPLC assay of each epimer and potential degradants over 2 hour incubation.
After 2 hours, the 25° C.

[5] = sublingual lobeline 30.0 mg, listed as lobeline

CN1[C@@H](CC(=O)c2ccccc2)CCC[C@H]1C[C@H](O)c1ccccc1 [Lobeline, 2-[6S-(2S-hydroxy-2-phenyl-ethyl)-1-methyl-piperidin-2R-yl]-1-phenyl-ethanone]
Lobeline % ([1]; T110, sample age 1:50): 69.6% | Lobeline % ([1]; T120, sample age 2:00): 68.5% | % Lobeline (Mean ± SD) ([2]; Solution 1 (Lobeline in “fresh” DI Water), time 0, pH 6.02): 99.16% | % Lobeline (Mean ± SD) ([2]; Solution 1 (“fresh” DI Water), 15 min, pH 6.03-6.24): 99.17 ± 0.053% | % Lobeline (Mean ± SD) ([2]; Solution 1 (“fresh” DI Water), 30 min, pH 6.02-6.24): 99.01 ± 0.162% | % Lobeline (Mean ± SD) ([2]; Solution 1 (“fresh” DI Water), 45 min, pH 6.13-6.37): 99.06 ± 0.146% | % Lobeline (Mean ± SD) ([2]; Solution 1 (“fresh” DI Water), 1 h, pH 6.26-6.52): 99.00 ± 0.195% | % Lobeline (Mean ± SD) ([2]; Solution 1 (“fresh” DI Water), 80 min, pH 6.19-6.50): 98.54 ± 0.112% | % Lobeline (Mean ± SD) ([2]; Solution 1 (“fresh” DI Water), 100 min, pH 6.16-6.50): 98.50 ± 0.139% | % Lobeline (Mean ± SD) ([2]; Solution 1 (“fresh” DI Water), 2 h, pH 5.63-5.88): 98.42 ± 0.601% | % Lobeline (Mean ± SD) ([2]; Solution 2 (Lobeline in “8-h” DI Water), time 0, pH 7.87): 98.97% | % Lobeline (Mean ± SD) ([2]; Solution 2 (“8-h” DI Water), 15 min, pH 7.78-8.21): 99.34 ± 0.274% | % Lobeline (Mean ± SD) ([2]; Solution 2 (“8-h” DI Water), 30 min, pH 7.58-7.85): 99.49 ± 0.215% | % Lobeline (Mean ± SD) ([2]; Solution 2 (“8-h” DI Water), 45 min, pH 7.66-7.68): 99.35 ± 0.056% | % Lobeline (Mean ± SD) ([2]; Solution 2 (“8-h” DI Water), 1 h, pH 6.84-7.11): 99.20 ± 0.085% | % Lobeline (Mean ± SD) ([2]; Solution 2 (“8-h” DI Water), 80 min, pH 6.53-6.79): 99.11 ± 0.150% | % Lobeline (Mean ± SD) ([2]; Solution 2 (“8-h” DI Water), 100 min, pH 6.24-6.51): 98.99 ± 0.206% | % Lobeline (Mean ± SD) ([2]; Solution 2 (“8-h” DI Water), 2 h, pH 6.21-6.49): 98.78 ± 0.258% | conversion of lobeline to lobeline epimer ([2]; fresh deionized water or water allowed to absorb atmospheric carbon dioxide for up to 8 hours, 2 hour time course): ca. 1% | half-life (clinical): 3.91 h | time at which geometric mean plasma concentration peaked (clinical): 1.26 h | dose linearity of Cmax and CL/F ([3]; dose range from 7.5 to 30 mg, sublingual, human): Linear kinetics | Combined urinary excretion of lobeline and epimer ([3]; human, in vivo): ≤ 0.5% | AUC(0-inf) ([3]; human, in vivo, 30 mg): 8.02 ng·h/mL | half-life ([3]; human, in vivo, 30 mg, Terminal exponential phase half-life (T1/2), average): ~2.4 h | half-life ([3]; human, in vivo, 30 mg, Terminal exponential phase half-lives (T1/2 values), range): 1 to 5 h | Tmax ([3]; human, in vivo, 30 mg, Tmax values, range): 0.25 to 3 h | Tmax ([3]; human, in vivo, 30 mg, Tmax, average): 1.4 h | half-life ([3]; human, in vivo, mean T1/2 values, human subjects, sublingual lobeline): ~2 h | equilibrium ratio of lobeline to epimer ([3]; humans): 1 to 10 | AUCext (percent of AUC(0-∞) determined by extrapolation) ([3]; sublingual lobeline 7.50 mg): 39.3% and 21.5% and 38.5% and 19.2% and 18.0% and 12.3% and 13.6% and 29.5% | Tlast (time of last measurable plasma concentration) ([3]; sublingual lobeline 7.50 mg): 3.03 hr and 4.00 hr (3×) and 4.05 hr and 6.00 hr (2×) and 12.00 hr | λz (terminal exponential rate constant) ([3]; sublingual lobeline 7.50 mg): 0.401 h⁻¹ and 0.403 h⁻¹ and 0.195 h⁻¹ and 0.295 h⁻¹ and 0.277 h⁻¹ and 0.183 h⁻¹ and 0.555 h⁻¹ and 0.367 h⁻¹ | AUCext (percent of AUC(0-∞) determined by extrapolation) ([3]; sublingual lobeline 15.0 mg): 16.1% and 14.1% and 6.24% and 6.52% and 14.5% and 12.7% and 18.7% and 18.1% | Tlast (time of last measurable plasma concentration) ([3]; sublingual lobeline 15.0 mg): 4.17 hr and 4.00 hr and 6.00 hr (3×) and 8.00 hr (2×) and 11.00 hr | λz (terminal exponential rate constant) ([3]; sublingual lobeline 15.0 mg): 0.513 h⁻¹ and 0.544 h⁻¹ and 0.573 h⁻¹ and 0.341 h⁻¹ and 0.322 h⁻¹ and 0.206 h⁻¹ and 0.185 h⁻¹ and 0.321 h⁻¹ | Tlast (time of last measurable plasma concentration) ([3]; sublingual lobeline 30.0 mg): 8.02 h | AUCext (percent of AUC(0-∞) determined by extrapolation) [3, 5]: 7.44% and 6.59% and 5.81% and 5.16% and 20.3% and 3.50% and 8.86% and 5.87% | Tlast (time of last measurable plasma concentration) [3, 5]: 4.00 h and 6.05 h and 12.17 h and 8.03 h and 22.75 h and 6.00 h and 8.00 h | λz (terminal exponential rate constant) [3, 5]: 0.878 h⁻¹ and 0.469 h⁻¹ and 0.314 h⁻¹ and 0.254 h⁻¹ and 0.149 h⁻¹ and 0.151 h⁻¹ and 0.376 h⁻¹ and 0.380 h⁻¹ | CL/F (extravascular clearance) ([3]; sublingual lobeline 7.50 mg): 2328 mL/min/kg and 844 mL/min/kg and 1116 mL/min/kg and 623 mL/min/kg and 792 mL/min/kg and 179 mL/min/kg and 1502 mL/min/kg and 1051 mL/min/kg | CL/F (extravascular clearance) ([3]; sublingual lobeline 15.0 mg): 1995 mL/min/kg and 866 mL/min/kg and 1364 mL/min/kg and 550 mL/min/kg and 1183 mL/min/kg and 188 mL/min/kg and 1194 mL/min/kg and 1068 mL/min/kg | CL/F (extravascular clearance) ([3]; sublingual lobeline 30.0 mg): 1809 mL/min/kg and 1169 mL/min/kg and 1269 mL/min/kg and 572 mL/min/kg and 1736 mL/min/kg and 162 mL/min/kg and 2340 mL/min/kg and 857 mL/min/kg | final component concentration (as a function of the area under the curve) ([4]; HEPES [^3H]DTBZ binding buffer, after 2 hours at 25° C.): 83% | Lobeline % ([4]; T0, sample age 0:01): 98.5% | Lobeline % ([4]; T5, sample age 0:06): 97.8% | Lobeline % ([4]; T10, sample age 0:10): 96.7% | Lobeline % ([4]; T15, sample age 0:15): 95.5% | Lobeline % ([4]; T20, sample age 0:20): 94.7% | Lobeline % ([4]; T25, sample age 0:25): 94.1% | Lobeline % ([4]; T30, sample age 0:31): 92.8% | Lobeline % ([4]; T35, sample age 0:35): 92.7% | Lobeline % ([4]; T40, sample age 0:40): 91.3% | Lobeline % ([4]; T45, sample age 0:45): 90.7% | Lobeline % ([4]; T50, sample age 0:50): 90.1% | Lobeline % ([4]; T55, sample age 0:55): 89.9% | Lobeline % ([4]; T60, sample age 1:00): 89.1% | Lobeline % ([4]; T70, sample age 1:10): 87.8% | Lobeline % ([4]; T80, sample age 1:20): 86.6% | Lobeline % ([4]; T90, sample age 1:31): 85.5% | Lobeline % ([4]; T100, sample age 1:40): 84.5% | Lobeline % ([4]; T110, sample age 1:50): 83.5% | Lobeline % ([4]; T120, sample age 2:01): 82.7%

Source: patent US20090118331A1, “Use of Lobeline Epimers in the Treatment of Central Nervous System Diseases, Pathologies, and Drug Abuse” (priority 2007, published 2009)
